Results on six compounds are retold here after ChEMBL document CHEMBL5230122, “Natural products and other inhibitors of F1FO ATP synthase” (Eur J Med Chem, 2020).

In one data set the test system is NCI-H460. The data set is described as follows: Antiproliferative activity against human NCI-H460 cells assessed as reduction in cell viability incubated for 48 hrs by MTT assay. To be noted: NCI-H460, 48 h. The class given is functional, cell-based. In general terms: Formazan colour is commonly taken as a measure of viable cells.
For the next data set, the system named is N2a. The data set is described as follows: Antiproliferative activity against mouse Neuro2a cells assessed as reduction in cell viability incubated for 48 hrs by MTT assay. The class given is functional, cell-based.
Data set [1] deals with K562. The data set is described as follows: Antiproliferative activity against human K562 cells assessed as reduction in cell viability incubated for 72 hrs by MTT assay. The class given is functional, cell-based. To be noted: K562, 72 h.
Data set [2] concerns HCT-116. The data set is described as follows: Antiproliferative activity against human HCT-116 cells assessed as reduction in cell viability incubated for 72 hrs by MTT assay. Format: functional, cell-based. To be noted: HCT-116, 72 h.
In data set [3] the test system is K562. Description: Antitumor activity against human K562 cells assessed as reduction in cell viability incubated for 72 hrs by MTT assay. To be noted: K562, 72 h. Format: functional, cell-based.
Data set [4] has as its system HCT-116. The data set is described as follows: Antitumor activity against human HCT-116 cells assessed as reduction in cell viability incubated for 72 hrs by MTT assay. Format: functional, cell-based. To be noted: HCT-116, 72 h.
The nature of data set [5]: Inhibition of bovine heart mitochondrial F0F1-ATP synthase F0 domain assessed as reduction in rate of NADH oxidation for 30 mins by colorimetric assay. The class given is mitochondria, Bos taurus, Mitochondria.
Data set [6] deals with DU-145. The data set is described as follows: Antiproliferative activity against human DU-145 cells assessed as reduction in cell viability incubated for 3 days by rhodanile-blue dye based microplate reader analysis. The class given is functional. To be noted: DU-145, 72 h.
For data set [7], the system named is DU-145. The data set is described as follows: Antiproliferative activity against human DU-145 cells assessed as reduction in cell viability preincubated with PrSCs cells for 2 days followed by co-culture with DU-145 for 3 days by rhodanile-blue dye based microplate reader analysis. The class given is functional.
A short description of data set [8]: Acute toxicity in mouse assessed as maximum tolerated dose. To be noted: in vivo.
The next data set relates to HL-60. Description: Anticancer activity against human HL-60 cells assessed as reduction in cell viability incubated for 72 hrs by CCK-8 assay. The class given is functional, cell-based. To be noted: HL-60, 72 h.
In data set [9] the test system is MCF7. Description: Anticancer activity against human MCF7 cells assessed as reduction in cell viability incubated for 72 hrs by CCK-8 assay. Format: functional, cell-based. To be noted: MCF7, 72 h.
For a further data set, the system named is NCI-H1299. Description: Anticancer activity against human NCI-H1299 cells assessed as reduction in cell viability incubated for 72 hrs by CCK-8 assay. Format: functional, cell-based. To be noted: NCI-H1299, 72 h.
The next data set relates to LoVo. Description: Anticancer activity against human LoVo cells assessed as reduction in cell viability incubated for 72 hrs by CCK-8 assay. The class given is functional, cell-based.
In data set [10] the test system is P388. The data set is described as follows: Anticancer activity against mouse P388 cells assessed as reduction in cell viability incubated for 96 hrs by MTT assay. The class given is functional, cell-based. To be noted: P388, 96 h.
The subject of data set [11] is P388. Description: Anticancer activity against mouse P388 cells assessed as reduction in cell viability incubated for 48 hrs by sulforhodamine B (SRB) assay. To be noted: P388, 48 h. Format: functional, cell-based. In general terms: In SRB staining, fixed cells bind dye roughly in proportion to their protein.
The subject of data set [12] is MCF7. Description: Anticancer activity against human MCF7 cells assessed as reduction in cell viability incubated for 48 hrs by sulforhodamine B (SRB) assay. To be noted: MCF7, 48 h. Format: functional, cell-based.

Values after ≈ are worked out from the molar mass of the structure shown. Numbered stars: 1 amine (or outer) side, 2 acyl side, 3 side chain; on linkers, the order of the positions; unused ones are H or OH. Square brackets hold non-standard residues; d marks the D form. Peptide text beside a SMILES is read from it. * marks the point of attachment. X2 = CCC(=O)C[C@H](O)C[C@@H](C)C[C@H](N[*:1])C(=O)[*:2]; Leu(3R-OH) = CC(C)[C@@H](O)[C@H](N)C(=O)O; NH((S)CH(Me)CH2NMe2) = C[C@@H](CN(C)C)N*; Pro(4S-Me) = C[C@@H]1CN[C@H](C(=O)O)C1; X1 = CC[C@@H](C)/C=C/C(=O)*; Aib = CC(C)(N)C(=O)O; βAla = NCCC(=O)O

For `CO[C@H]1[C@H](O[C@@H]2C[C@@H]3C/C=C/C(=O)O[C@H](CO)C[C@H](O)[C@@H]4C[C@H](C)[C@H](/C=C\C=C\[C@H](C)C[C@H](C2)O3)O4)O[C@@H](C)[C@H](O)[C@H]1O`, the IC50 (as a rule, the concentration that inhibits the measured activity by half) amounted to 12 nM in the data set on NCI-H460 and 44 nM in the data set on N2a.
In the case of `CC[C@H]1/C=C/C=C/C[C@@H](C)[C@H](O)[C@@](C)(O)C(=O)[C@@H](C)[C@H](O)[C@@H](C)C(=O)[C@@H](C)[C@H](O)[C@@H](C)/C=C/C(=O)O[C@@H]2[C@H](C)[C@H](CC1)O[C@]1(CC[C@H](C)[C@H](C[C@@H](C)O)O1)[C@H]2C` [OLIGOMYCIN], the IC50 with K562 [1] came out at 200 nM; in the data set on HCT-116 [2], 900 nM; in the data set on K562 [3], 200 nM; in the data set on HCT-116 [4], 1000 nM.
In the case of `CCC(=O)C[C@H](O)C[C@@H](C)C[C@H](NC(=O)[C@@H]1C[C@H](C)CN1C(=O)/C=C/[C@H](C)CC)C(=O)N[C@H](C(=O)NC(C)(C)C(=O)N[C@@H](CC(C)C)C(=O)N[C@@H](CC(C)C)C(=O)NC(C)(C)C(=O)NC(C)(C)C(=O)NCCC(=O)N[C@@H](C)CN(C)C)[C@H](O)C(C)C` (X1-[Pro(4S-Me)][X2][Leu(3R-OH)][Aib]LL[Aib][Aib][βAla]-{NH((S)CH(Me)CH2NMe2)}), the IC50 is 2.8 µg/mL (≈ 2.3 µM) in [5], above 1 µg/mL with DU-145 [6] and 0.045 µg/mL (≈ 0.0369 µM) in the data set with DU-145 [7]. In addition, the MTD – broadly, the largest dose that counted as tolerated – in [8] is 2.5 mg/kg.
In the same order, the values of `CC[C@@H](C)/C=C/C(=O)N1C[C@@H](C)C[C@H]1C(=O)N[C@@H](C)C(=O)N[C@H](C(=O)NC(C)(C)C(=O)N[C@@H](CC(C)C)C(=O)N[C@@H](CC(C)C)C(=O)NC(C)(C)C(=O)NC(C)(C)C(=O)NCCC(=O)N[C@@H](C)CN(C)C)[C@H](O)C(C)C` (X1-[Pro(4S-Me)]A[Leu(3R-OH)][Aib]LL[Aib][Aib][βAla]-{NH((S)CH(Me)CH2NMe2)}) are 2.8 µg/mL (≈ 2.6 µM), above 1 µg/mL, 0.21 µg/mL (≈ 0.195 µM) and 12.5 mg/kg.
As for `CC[C@H](C)[C@H](NC(=S)[C@H](C)NC(=O)[C@H](C)NC(=S)[C@H](CCSC)NC(=S)[C@@H](NC(=O)C(C)=O)C(C)C)C(=S)N[C@@H](C)C(=O)N[C@H]1C(=O)N[C@@H](C(C)C)C(=O)N[C@@H](C)C(=O)N[C@@H](Cc2ccc(OC)cc2)C(=O)N[C@@H](C(O)c2cn(C)c[n+]2C)C(=O)N/C=C\SC1C` (stereo partly specified), the 50% inhibitory concentration (IC50) amounted to 610 nM in the data set on HL-60, 4980 nM in the data set on MCF7 [9], 5080 nM in the data set on NCI-H1299 and 1830 nM with LoVo.
For the compound `CC/C(C)=C(\NC(=O)[C@@H](NC(=O)CC(=O)[C@@H](C)CC(C)C)[C@](C)(O)CC)C(=O)N[C@@H](C)C(=O)N/C(C(=O)N[C@@H](C(=O)N[C@@H](C(=O)N[C@@H](C(=O)N[C@H](C(=O)N/C(C(=O)N[C@H](C)C(=O)N[C@@H](C(=O)N[C@H](C(=O)NC(C(=O)N[C@H](CN(C)C)C(C)C)=C(C)C)C(C)C)C(C)C)=C(\C)CC)C(C)(C)O)C(C)(C)O)[C@@H](C)CC)C(C)C)=C(\C)CC`, the values for the half-inhibitory concentration (IC50) in the data set with P388 [10], in the data set on P388 [11] and with MCF7 [12] were 0.51 nM, 10 nM and 10 nM, respectively.
